Test [1] has as its system RPE cells. In words: Effect of NAM in the TNT-induced EMT model, qPCR. The class given is cell-based, human. The conditions noted are these: 10 mM NAM. How it is done:
In a parallel experiment, the effect of NAM was tested in an EMT model. EMT was induced in RPE cells using 10 ng/ml TGFβ1 and TNFα. RPE cells were trypsinized and passaged into a 24 well plate. 24 hours after passaging, RPE cells were treated with TGFβ1 and TNFα (TNT condition) for 7 days. To test the effect of NAM, we added 10 mM NAM or vehicle to the medium used for EMT model (using TNT). EMT associated protein transcripts including FOXS1 were analyzed by qPCR.

A further test concerns Primary human RPE lines. The experiment in a line: qPCR of EMT and RPE fate transcripts in primary RPE cultured with NAM for 21 days. The class given is cell-based. The conditions noted are these: 10 mM NAM, versus vehicle. How it is done: Cadaver donor globes were received from the National Disease Research Interchange (Philadelphia, Pa., USA), and RPE cells were isolated and grown to establish a RPE monolayer (Blenkinsop et al., (2015), Investigative Ophthalmology & Visual Science 56, 7085-7099; Blenkinsop et al., (2013), Methods Mol Biol 945, 45-65.). Primary human RPE lines were cultured in the presence of Nicotinamide (NAM) (Cat. #N0636; Sigma) at a concentration of 10 mM or vehicle (cell culture grade water) for 21 days. […] Additionally, RPE fate associated protein transcripts were tested by qPCR.

The test system of another test is p38. In words: p38 immunostaining (localization) in RPE cells. The settings on record: DMEM 5% FBS, 5 days.
In test [2] the test system is hTERT HMEnt (HME) breast epithelial cell line. The experiment in a line: EMT and FOXS1 transcripts in breast epithelial cells.
The subject of test [3] is RPE cells. In words: Screening assay for agents that induce EMT: RPE morphology by light microscope. The test is classed as cell-based, human. The settings on record: 10 ng/ml, 5 days, DMEM/F12 with 5% FBS.
Protocol: RPE were plated at a confluency of 30,000 cells in 1 well of a 24-well plate in DMEM/F12 with 5% FBS, adding TGFβ (10 ng/ml) or TNFα (10 ng/ml), or both. After 5 days, RPE morphology was assessed by a light microscope.
Test [4] relates to RPE cells. In words: p38 blockade in TnT-induced RPE EMT (masses and EMT transcripts). The test is classed as cell-based, human. The settings on record: TnT + 10 ng/ml SB202190, 5 days. The protocol: It was next reasoned that, if p38 is involved in the TnT-induced gene changes observed in SNAIL, SLUG and TWIST transcripts, then blocking p38 should result in the loss of TnT-induced EMT changes. Therefore an experiment was conducted to examine RPE-EMT with an additional condition of TnT+the p38 inhibitor SB202190.

For test [5], the system named is RPE cells. The experiment in a line: FOXS1 expression in EMT+p38 inhibitor condition. The test is classed as cell-based, human. The settings on record: TnT + p38 inhibitor, 5 days.

The values below come from patent publication US20170082611A1, “Methods for Inhibiting Epithelial to Mesenchymal Transition by Inhibition of FOXS1” (Regenerative Research Foundation, priority 2015, published 2017).

With `NC(=O)c1cccnc1` [NAM, Nicotinamide], in the test with RPE cells [1] (as early as day 1 post induction of EMT), the “EMT marker SNAIL” value was “inhibited”. Moreover, the “EMT marker FOXS1” value in the test on RPE cells [1] (by day 3 post induction of EMT) is on record as “clear inhibition”. Also, in the test on RPE cells [1] (by day 5 post induction of EMT), the “EMT marker SLUG” value was “clear inhibition”. For the same molecule, in the test on Primary human RPE lines, the “EMT associated marker FOXS1” value is given as “inhibited”, the “EMT associated marker SNAIL” value is given as “inhibited”, the “RPE marker BEST1 expression” value is “increased expression” and the “RPE marker RPE65 expression” value was “increased expression”.

As to “TGFβ: cytokine used at 10 ng/ml to induce EMT”, the p38 localization result with p38 is reported as “localized predominantly perinuclearly”. Further, in test [2], the FOXS1 transcript entry is on record as “increased”. Besides, the RPE morphology entry in the test on RPE cells [3] is recorded as “acquired a fibroblastic morphology”.

Consider `Oc1ccc(-c2nc(-c3ccncc3)c(-c3ccc(F)cc3)[nH]2)cc1` [SB202190], for which, in the test on RPE cells [4], the SLUG transcription result is reported as “stayed at or near control levels”, the SNAIL transcription result was “stayed at or near control levels”, the TWIST transcription entry is given as “stayed at or near control levels” and the “growth of three dimensional masses” value is on record as “did not grow”. Moreover, in the test on RPE cells [5], the FOXS1 gene transcription result is “elevated in the TnT condition, but not when the p38 inhibitor was added”.

Take TNFα: in the test with p38, the p38 localization result is recorded as “found cytoskeletally”. For the same molecule, the RPE morphology entry with RPE cells [3] is recorded as “acquired a fibroblastic morphology”.
